{"source": "patent US20240425501A1", "about": "“NOVEL BICYCLIC HETEROARYL DERIVATIVES AS SOS1:KRAS PROTEINPROTEIN INTERACTION INHIBITORS” (SATYARX PHARMA INNOVATIONS PVT LTD, priority 2021, published 2024)"}
{"molecular_target": "T1, hSOS1 enzyme / KRAS (G12C), GST-Tag, GDP-bound protein (Homo sapiens, UniProt Q07889)", "T1 sequence (Q07889 564-1049 limits assumed)": "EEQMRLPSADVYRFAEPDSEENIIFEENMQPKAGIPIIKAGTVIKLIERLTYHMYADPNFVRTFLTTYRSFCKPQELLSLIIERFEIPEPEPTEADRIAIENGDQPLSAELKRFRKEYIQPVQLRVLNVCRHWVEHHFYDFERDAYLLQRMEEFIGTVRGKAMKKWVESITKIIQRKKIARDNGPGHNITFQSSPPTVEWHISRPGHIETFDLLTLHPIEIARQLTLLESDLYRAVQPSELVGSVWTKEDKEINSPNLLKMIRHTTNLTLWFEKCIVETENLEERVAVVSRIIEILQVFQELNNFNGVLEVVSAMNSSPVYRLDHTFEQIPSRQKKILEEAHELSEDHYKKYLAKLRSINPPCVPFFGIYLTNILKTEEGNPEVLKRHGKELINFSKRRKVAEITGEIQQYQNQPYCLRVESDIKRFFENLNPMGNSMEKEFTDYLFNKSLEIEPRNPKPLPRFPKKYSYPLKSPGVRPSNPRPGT", "experiment": "SOS1-mediated KRAS guanine nucleotide exchange (GEF) assay, HTRF (\"On Assay\")", "assay_type": "biochemical", "details": "1 μM compound", "description": "Biochemical Assay: Measurement of SOS1-Mediated KRAS Guanine Nucleotide Exchange (GEF) Assay\nThis assay quantifies the HTRF-based SOS1 mediated guanine nucleotide exchange assay detecting GTP binding to KRAS (G12C), GST-Tag, GDP-bound protein. This is also referred as “On Assay”.The assay buffer composition is as follows: 10 mM HEPES pH-7, 150 mM NaCl, 5 mM MgCl2, 1 mM DTT, 0.05% BSA, 0.0025% IGEPAL CA-630 and MilliQ water. 0.5 μl of compounds diluted in assay buffer were dispensed into the respective wells of 384 black well test plate. 4.75 μl of KRAS working solution containing 100 nM KRAS (G12C), GST-Tag, GDP-bound protein GDP-loaded (Reaction biology) and 2 nM Anti GST-Tb cryptate (FRET donor, Cisbio) was added in assay buffer. The components were incubated for 10 min at 25° C.\n4.75 μl of hSOS1 working solution containing 20 nM hSOS1 enzyme and 200 nM EDA-GTP-DY-647P (FRET acceptor, synthesized by Jena Bioscience (Germany), supplied as a 1 mM solution) was further added in assay buffer. 4.75 μl of inhibitor control having only 200 nM EDA-GTP-DY-647P1 component without hSOS1 working solution was added in the negative control well. The plate was short spun for few seconds and incubated for 10 min. HTRF was measured using Perkin Elmer-Nivo 5F multimode plate reader.\nHTRF settings: EXCITATION FILTER—320/75 nm, EMISSION FILTER (1) —615/8 nm, EMISSION FILTER (2)—665/8 nm", "units": {"inhibition at 1 µM": "%"}}
{"smiles": "C[C@@H](Nc1nc(N2CCC2)nc2cnc(C3CCN(C)CC3)cc12)c1cc(N)cc(C(F)(F)F)c1", "note": "[Example 68, (R)—N-(1-(3-amino-5-(trifluoromethyl)phenyl)ethyl)-2-(azetidin-1-yl)-6-(1-methylpiperidin-4-yl)pyrido[3,4-d]pyrimidin-4-amine]", "inhibition at 1 µM": "≥ 50"}
{"smiles": "C[C@@H](Nc1nc(N2CCCC2)nc2cnc(N3CCCC3)cc12)c1cc(N)cc(C(F)(F)F)c1", "note": "[Example 17, (R)—N-(1-(3-amino-5-(trifluoromethyl)phenyl)ethyl)-2,6-di(pyrrolidin-1-yl)pyrido[3,4-d]pyrimidin-4-amine]", "inhibition at 1 µM": "≥ 50"}
{"smiles": "C[C@@H](Nc1nc(Cl)nc2cnc(N3CCC(O)CC3)cc12)c1cc(N)cc(C(F)(F)F)c1", "note": "[Example 29, (R)-1-(4-((1-(3-amino-5-(trifluoromethyl)phenyl)ethyl)amino)-2-chloropyrido[3,4-d]pyrimidin-6-yl)piperidin-4-ol]", "inhibition at 1 µM": "≥ 50"}
{"smiles": "CNc1nc(N[C@H](C)c2cc(N)cc(C(F)(F)F)c2)c2cc(N3CCCC3)ncc2n1", "note": "[Example 7, (R)—N4-(1-(3-amino-5-(trifluoromethyl)phenyl)ethyl)-N2-methyl-6-(pyrrolidin-1-yl)pyrido[3,4-d]pyrimidine-2,4-diamine]", "inhibition at 1 µM": "≥ 50"}
{"smiles": "C[C@@H](Nc1nc(Cl)nc2cnc(N3CCOCC3)cc12)c1cc(N)cc(C(F)(F)F)c1", "note": "[Example 19, (R)—N-(1-(3-amino-5-(trifluoromethyl)phenyl)ethyl)-2-chloro-6-morpholinopyrido[3,4-d]pyrimidin-4-amine]", "inhibition at 1 µM": "≥ 50"}
{"smiles": "CNc1nc(N[C@H](C)c2cc(N)cc(C(F)(F)F)c2)c2cc(N3CCC(F)(F)CC3)ncc2n1", "note": "[Example 32, (R)—N4-(1-(3-amino-5-(trifluoromethyl)phenyl)ethyl)-6-(4,4-difluoropiperidin-1-yl)-N2-methylpyrido[3,4-d]pyrimidine-2,4-diamine]", "inhibition at 1 µM": "≥ 50"}
{"smiles": "C[C@@H](Nc1nc(N(C)C)nc2cnc(N3CCOCC3)cc12)c1cc(N)cc(C(F)(F)F)c1", "note": "[Example 8, (R)—N4-(1-(3-amino-5-(trifluoromethyl)phenyl)ethyl)-N2,N2-dimethyl-6-morpholinopyrido[3,4-d]pyrimidine-2,4-diamine]", "inhibition at 1 µM": "≥ 50"}
{"smiles": "CC(C)N1CCN(c2cc3c(N[C@H](C)c4cc(N)cc(C(F)(F)F)c4)nc(N(C)C)nc3cn2)CC1", "note": "[Example 50, (R)—N4-(1-(3-amino-5-(trifluoromethyl)phenyl)ethyl)-6-(4-isopropylpiperazin-1-yl)-N2,N2-dimethylpyrido[3,4-d]pyrimidine-2,4-diamine]", "inhibition at 1 µM": "≥ 50"}
{"smiles": "C[C@@H](Nc1nc(N2CCC2)nc2cnc(N3CCOCC3)cc12)c1cc(N)cc(C(F)(F)F)c1", "note": "[Example 37, (R)—N-(1-(3-amino-5-(trifluoromethyl)phenyl)ethyl)-2-(azetidin-1-yl)-6-morpholinopyrido[3,4-d]pyrimidin-4-amine]", "inhibition at 1 µM": "≥ 50"}
{"smiles": "C[C@@H](Nc1nc(Cl)nc2cnc(N3CCN(C)CC3)cc12)c1cc(N)cc(C(F)(F)F)c1", "note": "[Example 23, (R)—N-(1-(3-amino-5-(trifluoromethyl)phenyl)ethyl)-2-chloro-6-(4-methylpiperazin-1-yl)pyrido[3,4-d]pyrimidin-4-amine]", "inhibition at 1 µM": "≥ 50"}
{"smiles": "COC1CCN(c2cc3c(N[C@H](C)c4cc(N)cc(C(F)(F)F)c4)nc(N(C)C)nc3cn2)CC1", "note": "[Example 41, (R)—N4-(1-(3-amino-5-(trifluoromethyl)phenyl)ethyl)-6-(4-methoxypiperidin-1-yl)-N2,N2-dimethylpyrido[3,4-d]pyrimidine-2,4-diamine]", "inhibition at 1 µM": "≥ 50"}
{"smiles": "C[C@@H](Nc1nc(Cl)nc2ncc(N3CCN(C)CC3)cc12)c1cc(N)cc(C(F)(F)F)c1", "note": "[Example 82, (R)—N-(1-(3-amino-5-(trifluoromethyl)phenyl)ethyl)-2-chloro-6-(4-methylpiperazin-1-yl)pyrido[2,3-d]pyrimidin-4-amine]", "inhibition at 1 µM": "≥ 50"}
{"smiles": "COC1CCN(c2cc3c(N[C@H](C)c4cc(N)cc(C(F)(F)F)c4)nc(N4CCC4)nc3cn2)CC1", "note": "[Example 40, (R)—N-(1-(3-amino-5-(trifluoromethyl)phenyl)ethyl)-2-(azetidin-1-yl)-6-(4-methoxypiperidin-1-yl)pyrido[3,4-d]pyrimidin-4-amine]", "inhibition at 1 µM": "≥ 50"}
{"smiles": "CNc1nc(N[C@H](C)c2cc(N)cc(C(F)(F)F)c2)c2cc(C3CCOCC3)ncc2n1", "note": "[Example 66, (R)—N4-(1-(3-amino-5-(trifluoromethyl)phenyl)ethyl)-N2-methyl-6-(tetrahydro-2H-pyran-4-yl)pyrido[3,4-d]pyrimidine-2,4-diamine]", "inhibition at 1 µM": "≥ 50"}
{"smiles": "COc1nc(N[C@H](C)c2cc(N)cc(C(F)(F)F)c2)c2cc(N3CCCC3)ncc2n1", "note": "[Example 3, (R)—N-(1-(3-amino-5-(trifluoromethyl)phenyl)ethyl)-2-methoxy-6-(pyrrolidin-1-yl)pyrido[3,4-d]pyrimidin-4-amine]", "inhibition at 1 µM": "≥ 50"}
{"smiles": "COCCOc1nc(N[C@H](C)c2cc(N)cc(C(F)(F)F)c2)c2cc(N3CCCC3)ncc2n1", "note": "[Example 4, (R)—N-(1-(3-amino-5-(trifluoromethyl)phenyl)ethyl)-2-(2-methoxyethoxy)-6-(pyrrolidin-1-yl)pyrido[3,4-d]pyrimidin-4-amine]", "inhibition at 1 µM": "≥ 50"}
{"smiles": "C[C@@H](Nc1nc(N2CCC2)nc2cnc(N3CCN(C)CC3)cc12)c1cc(N)cc(C(F)(F)F)c1", "note": "[Example 46, (R)—N-(1-(3-amino-5-(trifluoromethyl)phenyl)ethyl)-2-(azetidin-1-yl)-6-(4-methylpiperazin-1-yl)pyrido[3,4-d]pyrimidin-4-amine]", "inhibition at 1 µM": "≥ 50"}
{"smiles": "CNCCNc1nc(N[C@H](C)c2cc(N)cc(C(F)(F)F)c2)c2cc(N3CCOCC3)ncc2n1", "note": "[Example 35, (R)—N4-(1-(3-amino-5-(trifluoromethyl)phenyl)ethyl)-N2-(2-(methylamino)ethyl)-6-morpholinopyrido[3,4-d]pyrimidine-2,4-diamine]", "inhibition at 1 µM": "≥ 50"}
{"smiles": "C[C@@H](Nc1nc(Cl)nc2cnc(C3CCOCC3)cc12)c1cccc(C(F)F)c1F", "note": "[Example 64, (R)-2-chloro-N-(1-(3-(difluoromethyl)-2-fluorophenyl)ethyl)-6-(tetrahydro-2H-pyran-4-yl)pyrido[3,4-d]pyrimidin-4-amine]", "inhibition at 1 µM": "≥ 50"}
{"smiles": "CCN1CCN(c2cc3c(N[C@H](C)c4cc(N)cc(C(F)(F)F)c4)nc(Cl)nc3cc2OC)CC1", "note": "[Example 72, (R)—N-(1-(3-amino-5-(trifluoromethyl)phenyl)ethyl)-2-chloro-6-(4-ethylpiperazin-1-yl)-7-methoxyquinazolin-4-amine]", "inhibition at 1 µM": "≥ 50"}
{"smiles": "C[C@@H](Nc1nc(N(C)C)nc2cnc(N3CCN(C)CC3)cc12)c1cc(N)cc(C(F)(F)F)c1", "note": "[Example 45, (R)—N4-(1-(3-amino-5-(trifluoromethyl)phenyl)ethyl)-N2,N2-dimethyl-6-(4-methylpiperazin-1-yl)pyrido[3,4-d]pyrimidine-2,4-diamine]", "inhibition at 1 µM": "≥ 50"}
{"smiles": "C[C@@H](Nc1nc(N(C)CCN(C)C)nc2cnc(N3CCCC3)cc12)c1cc(N)cc(C(F)(F)F)c1", "note": "[Example 10, (R)—N4-(1-(3-amino-5-(trifluoromethyl)phenyl)ethyl)-N2-(2-(dimethylamino)ethyl)-N2-methyl-6-(pyrrolidin-1-yl)pyrido[3,4-d]pyrimidine-2,4-diamine]", "inhibition at 1 µM": "≥ 50"}
{"smiles": "C[C@@H](Nc1nc(N2CCC2)nc2cnc(N3CCC(F)(F)CC3)cc12)c1cc(N)cc(C(F)(F)F)c1", "note": "[Example 51, (R)—N-(1-(3-amino-5-(trifluoromethyl)phenyl)ethyl)-2-(azetidin-1-yl)-6-(4,4-difluoropiperidin-1-yl)pyrido[3,4-d]pyrimidin-4-amine]", "inhibition at 1 µM": "≥ 50"}
{"smiles": "CC1CCN(c2cc3c(N[C@H](C)c4cc(N)cc(C(F)(F)F)c4)nc(Cl)nc3cn2)CC1", "note": "[Example 27, (R)—N-(1-(3-amino-5-(trifluoromethyl)phenyl)ethyl)-2-chloro-6-(4-methylpiperidin-1-yl)pyrido[3,4-d]pyrimidin-4-amine]", "inhibition at 1 µM": "≥ 50"}
{"smiles": "CNCCC(=O)Nc1nc(N[C@H](C)c2cc(N)cc(C(F)(F)F)c2)c2cc(N3CCCC3)ncc2n1", "note": "[Example 78]", "inhibition at 1 µM": "≥ 50"}
{"smiles": "C[C@@H](Nc1nc(Cl)nc2ncc(N3CCCCC3)cc12)c1cc(N)cc(C(F)(F)F)c1", "note": "[Example 83, (R)—N-(1-(3-amino-5-(trifluoromethyl)phenyl)ethyl)-2-chloro-6-(piperidin-1-yl)pyrido[2,3-d]pyrimidin-4-amine]", "inhibition at 1 µM": "≥ 50"}
